In patent US20150147309A1, “ALLOSTERIC CHAPERONES AND USES THEREOF” (Fondazione Telethon, priority 2012, published 2015):

What was measured:
rhGAA = target: T1, rhGAA (Homo sapiens, UniProt P10253); assay: Effect of compounds on rhGAA stability at neutral pH (residual α-glucosidase activity); assay type: biochemical
T1 construct: purchased Genzyme Co, Cambridge, Mass., USA
Experimental: The standard activity assay of rhGAA was performed in 200 μl by using 5 μg of enzyme at 37° C. in 100 mM sodium acetate pH 4.0 and 20 mM 4NP-Glc. The reaction was started by adding the enzyme; after suitable incubation time (1-2 min) the reaction was blocked by adding 800 μL of 1 M sodium carbonate pH 10.2. Absorbance was measured at 420 nm at room temperature, the extinction coefficient to calculate enzymatic units was 17.2 mM^−1 cm^−1. One enzymatic unit is defined as the amount of enzyme catalyzing the conversion of 1 μmol substrate into product in 1 min, under the indicated conditions.
The effect of different pHs on the rhGAA stability was measured by preparing reaction mixtures containing 0.75 mg mL^−1 of enzyme in the presence of 50 mM citrate/phosphate (pH 3.0-7.0) at a certain pH. After incubations at 37° C., aliquots were withdrawn at the times indicated and the residual α-glucosidase activity was measured with the standard assay. To test the effect on the pH stability of rhGAA of chemical chaperons and of the other molecules, experiments were performed as described above by adding to the reaction mixtures the amounts of the different compounds indicated in the text.

mutated GAA [1] = target: T2, mutated GAA (Homo sapiens, UniProt P10253, A445P); assay: Mutated GAA gene constructs expressed in COS7 cells (GAA activity, western blot); assay type: cell-based; details: 10 mM
T2 construct: expressed in transfected cells; host or cells: COS7 cells
Experimental: (§1) GAA activity was assayed by using the fluorogenic substrate 4-methylumbelliferyl-alpha-D-glucopyranoside (Sigma-Aldrich) according to a published procedure [Porto et al, 2009]. Briefly, 25 micrograms of protein were incubated with the fluorogenic substrate (2 mM) in 0.2 M acetate buffer, pH 4.0, for 60 minutes in incubation mixtures of 100 μl. The reaction was stopped by adding 700 μl of glycine-carbonate buffer, pH 10.7. Fluorescence was read at 365 nm (excitation) and 450 nm (emission) on a Turner Biosystems Modulus fluorometer. Protein concentration in cell homogenates was measured by the Bradford assay (Biorad, Hercules, Calif.).
(§2) To study GAA immunoreactive material, fibroblast extracts were subjected to western blot analysis. The cells were harvested, washed in phosphate-buffered saline, resuspended in water, and disrupted by five cycles of freeze-thawing. Equal amounts (20 μg protein) of fibroblast extracts were subjected to sodium dodecyl sulfate polyacrylamide gel electrophoresis and proteins were transferred to PVD membrane (Millipore, Billerica, Mass.). An anti-human GAA antiserum was used as primary antibody to detect GAA polypeptides; to detect β-actin, a monoclonal mouse antibody was used Immunoreactive proteins were detected by chemiluminescence (ECL, Amersham, Freiburg, Germany)
(§3) The response of individual mutations to NAC was further evaluated by expressing a panel of mutated GAA gene constructs in COST cells, according to the methods reported in previous studies [Parenti et al, 2007; Flanagan et a, 2009] (FIG. 5B). The mutated constructs were chosen to be representative of both imino sugar-responsive and non-responsive mutations, in order to compare the chaperoning profile of NAC with that of imino sugars. The cells were transfected with the mutated constructs, incubated either in the presence or in the absence of 10 mM NAC and harvested 72 hours after transfection.

mutated GAA [2] = target: T3, mutated GAA (Homo sapiens, UniProt P10253, E579K); assay: as above; assay type: cell-based; details: 10 mM, COS7 cells (FIG. 5B)
T3 construct: expressed in transfected cells; host or cells: COS7 cells
Experimental: as §1, §2, §3

mutated GAA [3] = target: T4, mutated GAA (Homo sapiens, UniProt P10253, G377R); assay: as above; assay type: cell-based; details: 10 mM, harvested 72 hours after transfection
T4 construct: expressed in transfected cells; host or cells: COS7 cells
Experimental: as §1, §2, §3

mutated GAA [4] = target: T5, mutated GAA (Homo sapiens, UniProt P10253, G549R); assay: as above; assay type: cell-based; details: 10 mM, COS7 cells, non-responsive mutation
T5 construct: expressed in transfected cells; host or cells: COS7 cells
Experimental: as §1, §2, §3

mutated GAA [5] = target: T6, mutated GAA (Homo sapiens, UniProt P10253, L552P); assay: as above; assay type: cell-based; details: 10 mM
T6 construct: expressed in transfected cells; host or cells: COS7 cells
Experimental: as §1, §2, §3

mutated GAA [6] = target: T7, mutated GAA (Homo sapiens, UniProt P10253, Y455F); assay: as above; assay type: cell-based; details: 10 mM, harvested 72 hours after transfection, p<0.05
T7 construct: expressed in transfected cells; host or cells: COS7 cells
Experimental: as §1, §2, §3

GAA activity in tissues = target: T8, GAA activity in tissues (Homo sapiens, UniProt P10253); assay: Synergy between NAC and rhGAA in vivo in mouse model of PD; set-up: species or system mice; details: oral NAC 5 days, rhGAA 100 mg/kg on day 3, liver, heart, diaphragm, gastrocnemium, not statistically significant
T8 construct: purchased Genzyme Co, Cambridge, Mass., USA
Experimental: Animal studies were performed according to the European Union Directive 86/609, regarding the protection of animals used for experimental purposes. The animals, mice model of PD [Raben et al, 1993], were allowed to drink 138 mM NAC in water ad libitum (4.2 g/kg/day) for 5 days. On day 3 they received a single rhGAA injection (100 mg/kg) in the tail vein. On day 5 the animals were sacrificed and tissues were analyzed for GAA activity.

dose dependence of stabilizing effect on rhGAA (rhGAA; 0, 0.1, 1, 10 mM, neutral pH): dose dependent
rhGAA activity detectable after incubation (rhGAA; 10 mM, neutral pH 7.0, 37° C., after 48 h of incubation): about 90%
stabilization of rhGAA at neutral pH (rhGAA; pH 7.0, 37° C., 0.1-10 mM, up to 48 hrs): rescued
76 KDa or 70 kDa active isoforms of GAA on western blot, p.A445P (mutated GAA [1]; COS7 cells): increase
GAA activity, mutation p.A445P (mutated GAA [1]; harvested 72 hours after transfection, p<0.05): enhancement of GAA activity
GAA activity, mutation p.E579K (mutated GAA [2]): increases of GAA activity
increase in GAA activity, mutation pG377R (mutated GAA [3]): not statistically significant
amounts of GAA active isoforms on western blot, p.G549R (mutated GAA [4]): no change
76 KDa or 70 kDa active isoforms of GAA on western blot, p.L552P (mutated GAA [5]; COS7 cells): increase
GAA activity, mutation p.L552P (mutated GAA [5]; harvested 72 hours after transfection, p<0.01): enhancement of GAA activity
GAA activity, mutation p.Y455F (mutated GAA [6]): enhancement of GAA activity
correction of GAA enzyme activity in tissues, combination with rhGAA vs rhGAA alone (GAA activity in tissues): superior to rhGAA alone
Compound: CC(=O)N[C@@H](CS)C(=O)O [NAC, N-acetyl cysteine]
